Assays:
hPSCs = test: Cardiomyocyte differentiation in monolayer in E8 basal medium, CTNT/NKX2.5 flow cytometry and staining; format: cell-based, human; settings: for efficiencies of cardiac differentiation: different WNT inhibitors in the presence of heparin, CTNT FACS, 10 days
Text: (§1) Cardiomyocyte differentiation in monolayer: When hPSCs had grown to 80-90% confluent, 2-3 days after plating, the medium was changed from E8 to differentiation basal medium, which contains E8 basal medium (DMEM F-12, L-ascorbic acid, Selenium, Transferrin, and NaHCO3), 1× Chemically Defined Lipid Concentrate (100×, Life Technologies, 11905-031; a commercially-available lipid mixture of Arachidonic Acid, Cholesterol, DL-α-Tocopherol Acetate, Ethyl Alcohol 100%, Linoleic Acid, Linolenic Acid, Myristic Acid, Oleic Acid, Palmitic Acid, Palmitoleic Acid, Pluronic F-68, Stearic Acid, Tween 80™) and 1× Pen Strep (Life Technologies, 15140-122). That day was defined as day 0. CHIR99021 (5 uM, Tocris, 4423) was added into differentiation basal medium at day 0 for 24 hrs. IWP2 (3 uM, Tocris, 3533) was added from day 2 to day 5. Heparin was added into the medium at indicated dosages and timeline. Insulin (20 ug/ml, Sigma, 19278) was added into differentiation basal medium to maintain cardiomyocytes from day 7 onward. The medium was changed daily until day 7, and then changed every 2-3 days from day 7 onward. The growth factors, inhibitors, and enzymes used in culture were: Activin A (10 ng/ml, R&D, 338-AC/CF), BMP4 (10 ng/ml, R&D, 314-BP/CF), FGF2 (100 ng/ml, Peprotech, 100-18B), TGFβ1 (1.74 ng/ml, R&D, 240-B/CF), Dorsomorphin (3 μM, Stemgent, 04-0024), LDN-193189 (0.1 μM, Stemgent, 04-0074), PD0325901 (1 μM, Stemgent, 04-0008), SB431542 (3 μM, Selleckchem, s1067), Heparin (Sigma, H3149), Heparinase I (New England Biolabs, P0735S).
Immunofluorecence staining: Cells cultured in monolayer were fixed in 2% PFA for 10 minutes at room temperature, washed with PBS and permeabilized with 0.2% Triton X-100/PBS for 3 minutes. After successive washes in PBS, the cells were blocked in 10 mg/ml BSA for 30 minutes and incubated with primary antibody for 1 hour at room temperature. Cells were then washed 3 times with PBS for 5 minutes and incubated with secondary antibodies (Alexa 488 or 594-conjugated) for 1 hour. DAPI was applied for nuclei staining. The following primary antibodies were used for immunofluorescence: alpha actinin (mouse, 1:1000, A7811, Sigma), CTNI (cardiac troponin I, rabbit, 1:200, sc-15368, Santa Cruz), CTNT (cardiac troponin T, mouse, CT3, 1:1000, DSHB), Desmin (mouse, 1:100, M0760, DaKo) NKX2.5 (rabbit, ab35842; 1:200, Abcam).
Flow cytometry assay: Cells differentiated for 10 days in monolayer were dissociated with TrypLE (Invitrogen) for 5 minutes. Single cells were washed off and suspended by DMEM/10% FBS followed by centrifugation. The pellets were washed by PBS once and fixed by 2% PFA for 5 minutes. After washing with PBS and centrifuging, permeabilization was performed by 0.3% Triton X-100 for 3 minutes. The cells were centrifuged and re-suspended with 1% BSA to block unspecific binding of antibody, followed by incubation with primary antibodies (diluted in 1% BSA) for 1 hour. After washed, the cells were incubated with second antibodies conjugated with FITC or PE (Invitrogen, 1:1000 diluted in PBS) for 30 minutes. The cells were washed once and suspended in PBS for the flow cytometry assay.
The inventors developed an E8 basal medium (consisting of E8 media without NaHCO3, insulin, bFGF, or TGFβ; i.e., containing DMEM/F-12, L-ascorbic acid, selenium, and transferrin). This E8 basal medium was used in a differentiation protocol for human H1 ESCs with initial WNT activation (using GSK3β inhibitor, CHIR99021) applied to the cells in culture at days 0-1 (i.e., days following initiation of the stem cell differentiation protocol; day 0 is the day on which the stem cell differentiation protocol begins when the previously plated cells reach at least 75% confluence and the specific cell culture media are applied to the cells to being the cardiomyocyte differentiation protocol, day 1 is the next day in which specific media may be applied to the cells, and day 2 is the following day, etc.). […]

[1] = test system: Brachyury (T), Wnt3A, Axin2, KDR, GATA4; test: Real-time PCR of stage-specific marker expression during cardiac differentiation; format: cell-based, human
Protocol: Real-time PCR: RNA was purified using TRI Reagent™ Solution according to Ambion's protocol. Residual DNA was removed using the TURBO DNA-Free™ kit. Reverse transcription was carried out with Maxima H Minus Reverse Transcriptase (Thermo Scientific) primed with Poly N15-mer (Eurofins) with the recommended protocol. Prior to PCR, RNA template was removed with addition of Ambion Ribonuclease H from E. coli. Real-time PCR was performed on the BIO-RAD CFX96 using SsoAdvanced™ Universal SYBR® Green Supermix. PCR primers were listed in the supplementary table.
To investigate the function of heparin in mesoderm determination and cardiac specification, stage-specific marker expression levels were measured by qPCR (FIG. 33).

H1 ESCs = test: Live cell number yield after 10 days differentiation; format: cell-based, human; settings: WNT inhibitor in the presence of heparin
Text: as §1, with “The growth factors, inhibitors, and enzymes used in culture were: Activin A (10 ng/ml, R&D, 338-AC/CF), BMP4 (10 ng/ml, R&D, 314-BP/CF), FGF2 (100 ng/ml, Peprotech, 100-18B), TGFβ1 (1.74 ng/ml, R&D, 240-B/CF), Dorsomorphin (3 μM, Stemgent, 04-0024), LDN-193189 (0.1 μM, Stemgent, 04-0074), PD0325901 (1 μM, Stemgent, 04-0008), SB431542 (3 μM, Selleckchem, s1067), Heparin (Sigma, H3149), Heparinase I (New England Biolabs, P0735S).” left out

NKX2-5, TBX5 and TNNT2 = test: qPCR of cardiac markers after Test 3 protocol differentiation; format: cell-based, human
Protocol: Expression of Nkx.2, TBX5 and cTnT are shown as determined by qPCR. qPCR was performed assess relative mRNA expression of cardiac markers for cells following Test3 protocol differentiation.
Gene expression during differentiation was examined, and it was shown that the new factors affected specific gene expression during differentiation.

Human ESCs = test: High density survival screening of human ESCs in E8 medium with additives (Alkaline Phosphatase staining); format: cell-based; settings: for cell death and differentiation at high density: E8 medium supplemented, 5 days after initial confluence; for pluripotent stem cell survival and differentiation efficiency: E8 medium, cells near confluence, additives added, AP staining
Protocol: H1 hESCs were cultured in E8 media to 60% confluence, and then continually cultured for 2 days in E8 media with indiated additives. Alkaline Phosphatase (AP) staining was performed to show the pluripotent stem cells. Dark staining represents the survival of hESC colonies.
Additives are indicated (glycogen, glycogen+lipid+heparin). H1 and H9 hESCs were cultured in E8 media to 60% confluence, and then continually cultured for 2 days in E8 media with indicated additives. Two parallel experiments were performed in incubators in either good or bad condition.
FIGS. 6a and 6b show cell proliferation and spontaneous differentiation at high density with trehalose and CM-dextran. In FIG. 6a, HI hESCs were cultured in E8 media to >90 confluence, and then continually cultured for 5 days in E8 media with indicated additives. Phase contrast images show the survival rates of the cells. Note that most of the cells in control conditions died and few cells regrew, while Trehalose and CM-Dextran treated cells survived in high confluence but some of them started to differentiate. In FIG. 6b, qPCR of pluripotent and differentiated genes expression is shown for the samples in FIG. 6a.
First, initial screening assays were carried out with different additives. In this assay, human embryonic stem cells (ESCs) are grown to near confluence in E8 medium. The additives in the set of experiments described herein are selected from trehalose, CM-Dextran, lipid mix, heparin, glycogen and albumin. Cells that were untreated served as the controls. The protocol is set forth below:
1. Human ESCs were expanded with EDTA dissociation at 1:6 ratio.
2. E8 medium was changed every day.
3. After 2-3 days, when cell density reached around 70-80% confluency.
4. Change medium, and different treatments were applied to the cells in addition to fresh E8 every day.
5. Cells in E8 started to die 1-2 days after they reached 100% confluency.
6. Plates were stained with Alkaline Phosphatase staining (APS) kit (Vector Lab) to determine pluripotency maintenance. After a few days, the plates are stained with Alkaline Phosphatase Staining (APS). The cell viability reagent PrestoBlue can also be used to measure live cells. […]

[2] = test system: cardiomyocyte differentiation; test: Cell death/survival during cardiomyocyte differentiation in supplemented E8 medium (Test 1 and Test 3); format: cell-based, human; settings: Test 1 and Test 3, cell survival at day 3
Text: Cell survival at day 3 is shown.

Cc1ccc2nc(NC(=O)CSc3nc4c(c(=O)n3-c3ccccc3)SCC4)sc2c1 [IWP2]
cardiomyocyte purity at day 10 (hPSCs; H1 ESCs, CHIR99021 days 0-1, IWP2 days 2-5, no heparin, no albumin or B27): ≤ 50% | efficiencies of cardiac differentiation (hPSCs): comparable efficiencies of cardiac differentiation | cardiac differentiation (CTNT and NKX2.5 staining) (hPSCs; increasing IWP2 dosage, without heparin): did not significantly enhance cardiac differentiation | Axin2 expression at day 5 ([1]; all 5 hPSC lines): inhibited | expression of cardiac progenitor marker GATA4 ([1]; qPCR, day 5, 7 different human PSC lines): promoted

O=C(Nc1cccc2cccnc12)c1ccc(N2C(=O)[C@@H]3[C@H](C2=O)[C@@H]2C=C[C@H]3C2)cc1 [IWR1]
cell death and cardiomyocyte yield (H1 ESCs): caused more cell death and yielded fewer cardiomyocytes | efficiencies of cardiac differentiation (hPSCs): comparable efficiencies of cardiac differentiation

Oc1nc(-c2ccc(C(F)(F)F)cc2)nc2c1CSCC2 [XAV939]
efficiencies of cardiac differentiation (hPSCs): comparable efficiencies of cardiac differentiation

OC[C@H]1O[C@H](O[C@H]2O[C@H](CO)[C@@H](O)[C@H](O)[C@H]2O)[C@H](O)[C@@H](O)[C@@H]1O [trehalose, Trehalose]
cardiomyocyte differentiation by mRNA expression of NKX2-5, TBX5 and TNNT2 (NKX2-5, TBX5 and TNNT2): promoted cardiomyocyte differentiation | cell death and differentiation at high density (Human ESCs): little cell death, and the cells differentiated | pluripotent stem cell survival and differentiation efficiency (Human ESCs): enhanced pluripotent stem cell survival and differentiation efficiency | cell death during differentiation [2]: suppressed cell death during differentiation

CM-dextran
cardiomyocyte differentiation by mRNA expression of NKX2-5, TBX5 and TNNT2 (NKX2-5, TBX5 and TNNT2): promoted cardiomyocyte differentiation | cell death and differentiation at high density (Human ESCs): little cell death, and the cells differentiated | pluripotent stem cell survival and differentiation efficiency (Human ESCs): enhanced pluripotent stem cell survival and differentiation efficiency | cell death during differentiation [2]: suppressed cell death during differentiation

B1: heparinase I: bacteroides enzyme that selectively cleaves the glycosidic linkage between hexosamines and uronic acids in heparin (protein, UniProt Q05819 22-384, looked up)
Heparin lyase I: QQKKSGNIPYRVNVQADSAKQKAIIDNKWVAVGINKPYALQYDDKLRFNGKPSYRFELKAEDNSLEGYAAGETKGRTELSYSYATTNDFKKFPPSVYQNAQKLKTVYHYGKGICEQGSSRSYTFSVYIPSSFPDNATTIFAQWHGAPSRTLVATPEGEIKTLSIEEFLALYDRMIFKKNIAHDKVEKKDKDGKITYVAGKPNGWKVEQGGYPTLAFGFSKGYFYIKANSDRQWLTDKADRNNANPENSEVMKPYSSEYKTSTIAYKMPFAQFPKDCWITFDVAIDWTKYGKEANTILKPGKLDVMMTYTKNKKPQKAHIVNQQEILIGRNDDDGYYFKFGIYRVGNSTVPVTYNLSGYSETAR
effect of heparin in the promotion of cardiac differentiation (hPSCs; co-treatment with heparinase I and heparin): dramatically blocked | cardiac cell differentiation seen with IWP2 treatment (hPSCs; heparinase I with IWP2): significantly suppressed

— patent US20160340652A1, “CULTURE MEDIUM FOR STEM CELL DIFFERENTIATION” (The USA, as represented by the Secretary, Dept. of Health …, priority 2013, published 2016)
